Experimental data: patent US6903132B2, “Non-peptide GnRH agents, pharmaceutical compositions and methods for their use” (Agouron Pharmaceuticals, Inc., priority 2002, dated 2005)

Key:
Assay in all cases: Radioligand binding assay: inhibition of binding of 125I-GnRH-A to GnRH receptors (membranes)
human GnRH receptors = molecular target: T1, human GnRH receptors (Homo sapiens, UniProt P30968); details: Human GnRH receptor; competition with 125I-GnRH-A; Ki calculated from IC50 (Cheng et al.)
T1 construct: expressed in transfected cells; host or cells: HEK 293
T1 sequence (P30968 1-328): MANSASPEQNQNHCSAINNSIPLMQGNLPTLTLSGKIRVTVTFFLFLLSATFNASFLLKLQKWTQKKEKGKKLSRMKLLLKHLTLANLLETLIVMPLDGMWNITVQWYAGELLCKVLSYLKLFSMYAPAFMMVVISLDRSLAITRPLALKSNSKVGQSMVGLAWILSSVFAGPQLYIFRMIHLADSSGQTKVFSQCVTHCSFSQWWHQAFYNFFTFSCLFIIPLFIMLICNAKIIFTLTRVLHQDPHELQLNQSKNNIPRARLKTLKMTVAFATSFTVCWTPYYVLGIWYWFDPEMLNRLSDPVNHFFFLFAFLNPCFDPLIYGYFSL
Method in brief: (§1)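 Membranes from HEK 293 expressing mouse or human receptor, or rat pituitaries, incubated 1 h at RT with ~0.04–0.06 nM ¹²⁵I-[des-Gly¹⁰,D-Ala⁶]GnRH ethylamide and competitor (0.1–10,000 nM) in HEPES pH 7.4 with MgCl2, EDTA, BSA. Filtration onto PEI-soaked GF/C filters, scintillation counting; Ki from IC50 by Cheng–Prusoff.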

mouse GnRH receptors = molecular target: T2, mouse GnRH receptors (Mus musculus, UniProt Q01776); details: Mouse GnRH receptor; competition with 125I-GnRH-A; Ki calculated from IC50 (Cheng et al.)
T2 construct: expressed in transfected cells; host or cells: HEK 293
T2 sequence (Q01776 1-327): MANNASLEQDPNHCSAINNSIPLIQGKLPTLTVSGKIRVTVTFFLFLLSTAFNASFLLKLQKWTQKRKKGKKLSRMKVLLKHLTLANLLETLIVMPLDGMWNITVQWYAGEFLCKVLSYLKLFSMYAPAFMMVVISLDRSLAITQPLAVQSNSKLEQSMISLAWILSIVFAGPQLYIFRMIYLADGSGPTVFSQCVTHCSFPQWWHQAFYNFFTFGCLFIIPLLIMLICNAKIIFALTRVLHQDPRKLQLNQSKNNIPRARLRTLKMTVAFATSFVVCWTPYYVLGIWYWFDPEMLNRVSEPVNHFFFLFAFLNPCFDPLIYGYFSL
Method in brief: as §1

rat GnRH receptor = molecular target: T3, rat GnRH receptor (Rattus norvegicus, UniProt P30969); details: competition with 125I-GnRH-A, Ki calculated from IC50 (Cheng et al.)
T3 construct: rat pituitaries (Pel Freez Biologicals, Rogers, Ark.) are homogenized in buffer A; tissue Pel Freez Biologicals; host or cells: rat pituitaries
T3 sequence (P30969 1-327): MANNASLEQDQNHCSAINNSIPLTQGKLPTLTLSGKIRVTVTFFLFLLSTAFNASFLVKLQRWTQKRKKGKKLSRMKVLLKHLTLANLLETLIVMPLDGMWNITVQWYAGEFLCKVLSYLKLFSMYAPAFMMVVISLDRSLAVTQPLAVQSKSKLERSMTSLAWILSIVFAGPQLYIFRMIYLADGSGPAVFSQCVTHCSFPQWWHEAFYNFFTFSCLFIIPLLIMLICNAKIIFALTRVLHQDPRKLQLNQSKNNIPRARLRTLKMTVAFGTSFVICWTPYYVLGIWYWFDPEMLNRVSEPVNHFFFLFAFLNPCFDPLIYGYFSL
Method in brief: as §1

| Ki (human GnRH receptors) [nM] | Ki (mouse GnRH receptors) [nM] | Ki (rat GnRH receptor) [nM] | SMILES |
| --- | --- | --- | --- |
| 9.5 | 23 | 32 | COc1cc2c(cc1Cc1ccc(C(=O)NNc3cc(C)c4c(C)nn(C)c4n3)o1)C(C)(C)CCC2(C)C [Example C2, 5-[(3-Methoxy-5,5,8,8-tetramethyl-5,6,7,8-tetrahydro-2-naphthalenyl)methyl]-N′-(1,3,4-trimethyl-1H-pyrazolo[3,4-b]pyridin-6-yl)-2-furohydrazide] |
| 3 | 7 | 6.5 | Cc1cc2c(cc1Cc1ccc(C(=O)NNc3cc(C)c4c(C)nn(C)c4n3)o1)C(C)(C)CCC2(C)C [Example C1, 5-[(3,5,5,8,8-Pentamethyl-5,6,7,8-tetrahydro-2-naphthalenyl)methyl]-N′-(1,3,4-trimethyl-1H-pyrazolo[3,4-b]pyridin-6yl)-2-furohydrazide] |
